# Experimental data taken from patent US6664231B1, “Anti-fungal peptides” (priority 1993, dated 2003).
# Like-named read-outs stand apart in the source and are kept apart here.
# Assays:
# [1] = system: Aspergillus niger ATCC 16404; experiment: microbe, parasite or virus in culture; assay type: cell-based; details: Aspergillus niger, ATCC16404; read-out: Minimum Fungicidal Concentration, Aspergillus niger ATCC 16404
# Method: (§1) The anti-fungal activity of Domain III derived peptides was evaluated against a variety of fungal species, including species of Candida. Cryptococcus, Fusarium, Trichophyton, and Aspergillus, by an additional assay protocol utilizing Alamar Blue. Alamar Blue is an indicator dye formulated to measure quantitatively the proliferation of a variety of human or animal cells, bacteria, or fungi. It consists of an oxidation-reduction (REDOX) indicator that yields a colorimetric change in response to metabolic activity. For these experiments, species of Candida and Cryptococcus were grown in Sabouraud's dextrose broth (SDB) overnight. Strains of filamentous fungi (Aspergilius, Fusanum, Trichophyton) were obtained by irrigation of a confluent culture from a petri dish. Cells were washed and adjusted to a concentration of 5.0×10^3/mL in fresh SDB. […] Controls included amphotericin B, fluconazole, ketoconazole and griseofulvin. Antifungal drugs were also diluted in the same manner. Assays were performed in 96-well microuiter plates. […] The wells to be plated were determined by OD590 readings. The lowest concentration of peptide which maintained the blue color (or OD reading) of the blank was chosen along with the next two higher concentrations. Plates were allowed to grow for 18-48 hours depending on the rate of growth of each fungus. Minimal fungicidal activity (MFC) was determined as a 99.9% killing of the starting inoculum.
# [2] = system: Candida albicans (SLU-1 and ATCC strains); experiment: microbe, parasite or virus in culture; assay type: cell-based; details: Candida albicans
# Method: as §1
# [3] = system: Fusarium solani ATCC 36031; experiment: microbe, parasite or virus in culture; assay type: cell-based; details: Fusarium solani, ATCC36031; read-out: Minimum Fungicidal Concentration, Fusarium solani ATCC 36031
# Method: as §1
# [4] = system: Candida glabrata ATCC 2001; experiment: microbe, parasite or virus in culture; assay type: cell-based; details: Nakaseomyces glabratus, ATCC2001; read-out: Minimum Fungicidal Concentration, Candida glabrata ATCC 2001
# Method: as §1
# [5] = system: Candida parapsilosis ATCC 22019; experiment: microbe, parasite or virus in culture; assay type: cell-based; details: Lodderomyces parapsilosis, ATCC22019; read-out: Minimum Fungicidal Concentration, Candida parapsilosis ATCC 22019
# Method: as §1
# [6] = system: Candida albicans SLU-1; experiment: Radial diffusion assay (Example 3), wild type strain; assay type: cell-based; details: FIG. 2A
# Method: (§2) For the radial diffusion assays, Candida albicans SLU-1 were grown as described above and SLU-2G were grown overnight in Sabouraud dextrose broth supplemented with 10 μg/mL amphotericin B and 5 μg/mL ceftriaxone at 37° C. Cultures were diluted 1:25 into fresh, unsupplemented broth and allowed to grow for 5 hours at 37° C. Cells were pelleted at 1,500×g for 5 minutes at 4° C. Supernatant was decanted and replaced with 5 mL of 10 mM phosphate buffer, pH 7.4. After centrifugation the cell pellets were resuspended with 5 mL phosphate buffer for an OD570 determination. One OD570 for SLU-1 cells was 3×10^7 CFU/mL and for SLU-2G cells was 5×10^6 CFU/mL.
# (§3) Cells were added to 10 mL of molten, cooled (˜45° C.) underlayer agarose to a concentration of 1×10^6/mL and the suspension was poured into a level square petri plate with gentle rocking to allow even distribution and solidification to a uniform thickness of about 1 mm. Wells were cut into the hardened agarose with a sterilize, 3 mm diameter punch with vacuum.
# Peptides were two-fold serially diluted with DPBS from a starting concentration of approximately 1 mg/mL. Amphotericin B and nystatin were similarly diluted starting at 100 and 225 μg/mL, respectively. Five μL were added per well and allowed to diffuse at 37° C. for 1.5-2.0 hours. Then 10 mL of molten overlayer agarose were added and the plates were incubated inverted at 37° C. overnight. Plates were stained with a dilute Coomassie solution, inhibition zones were measured with calipers and net areas were calculated, then converted to pmol values by PROBIT analysis. The results of a representative experiment are shown in FIG. 2A for the SLU-1 strain and FIG. 2B for the SLU-2G strain. In FIGS. 2A and 2B, the fungicidal activity is represented for XMP.13 as open circles; for XMP.37 as closed circles; for XMP.97 as open triangles; for XMP.127 as closed triangles; for amphotericin B as open squares; and for nystatin as closed squares. The pmol for a 30 mm^2 zone of inhibition were calculated to be: for XMP.13, 689 pmol against SLU-1 and 129 pmol against SLU-2G; for XMP.37, 231 pmol against SLU-1 and 75 pmol against SLU-2G; for XMP.97, 670 pmol against SLU-1 and 161 pmol against SLU-2G; for XMP.127, 935 pmol against SLU-1 and 116 pmol against SLU-2G; for amphotericin B, 36 pmol against SLU-1 and >541 pmol for SLU-2G; and for nysttin, 98 pmol against SLU-1 and >1,215 pmol against SLU-2G.
# [7] = system: Candida albicans SLU-2G amphotericin B-resistant strain; experiment: Radial diffusion assay (Example 3), amphotericin B-resistant strain; assay type: cell-based; details: FIG. 2B
# Method: Domain III derived peptides were tested for their fungicidal activity on amphotericin resistant Candida. Resistant colonies of Candida were isolated using a gradient plate technique. A slanted Sabouraud dextrose agar plate was poured and allowed to harden. The plate was made level and additional agar supplemented with nystatin (Sigma, St. Louis, Mo., cat. no. N-3503) at a concentration of 10 μg/mL was poured. Cells from the CA-1 colony of Candida albicans SLU-1 strain described in Example 2 (10^7 cells in a volume of 100 μL) were spread over the plate and incubated at […] overnight.
# as §2, with “determination.” for “determination. One OD570 for SLU-1 cells was 3×10^7 CFU/mL and for SLU-2G cells was 5×10^6 CFU/mL.”
# as §3
# Peptides were two-fold serially diluted with DPBS from a starting concentration of approximately 1 mg/mL. […] Five μL were added per well and allowed to diffuse at 37° C. for 1.5-2.0 hours. Then 10 mL of molten overlayer agarose were added and the plates were incubated inverted at 37° C. overnight. Plates were stained with a dilute Coomassie solution, inhibition zones were measured with calipers and net areas were calculated, then converted to pmol values by PROBIT analysis.
# [8] = system: Candida parapsilosis; experiment: Radial diffusion assay, Candida species (Table 2); assay type: cell-based
# Method: (§4) The anti-fungal activity of Domain III derived peptides was also evaluated in vitro against a variety of fungal species, including Candida glabrata, Candida krusei, Candida lusitaniae, Candida parapsilosis, and Candida tropicalis. For these experiments, one colony of each of the above-listed Candida strains was picked from a Sabouraud's dextrose agar (SDA) plate and inoculated into 5 mL of Sabouraud's dextrose broth (SDB, 2% dextrose and 1% neopeptone) or, for C. krusei, Yeast Malt broth (YM, Becton Dickenson, Cockeysville, Md., cat no. BL 11405) in 12 mL polyproplyene snap-cap tubes. The tube cultures were incubated overnight with shaking at 37° C.
# (§5) Cultures were harvested when the OD570 of a 1:10 dilution was greater than or equal to the following values: 0.083 for Candida glabrata, 0.154 for Candida krusei, 0.117 for Candida lusitaniae, 0.076 for Candida parapsilosis, and 0.192 for Candida tropicalis. Cells were centrifuged for 7 minutes in an Eppendorf microfuge at 3,000 rpm (about 1,500 g). The cell pellet was resuspended in 1 mL PBS and approximately 1×10^7 cells in about 0.5 mL were added to 10 mL of cooled underlay agar (3% SBD, 1% agarose, 0.02% Tween 20, 10 mM sodium phosphate buffer, pH 7.4 at about 45° C.). The suspension was poured into square petri plates, allowed to solidify, and wells cut as described above.
# (§6) Peptides were two-fold serially diluted with D-PBS from about 20 μL of a starting concentration of approximately 1 mg/mL. Five μL of peptide dilution were added per well and allowed to diffuse for at least about 30 minutes into the agar at […] (to allow complete diffusion). Then 10 mL of molten overlayer agarose (6% SDB, 1% agarose, 10 mM sodium phosphate buffer, pH 7.4 at about 45° C.) were added and the plates were incubated inverted at […] overnight. Plates were stained with a dilute Coomassie solution, inhibition zones were measured with calipers and net areas were calculated, then converted to pmole values by PROBIT analysis.
# [9] = system: Candida krusei; experiment: Radial diffusion assay, Candida species (Table 2); assay type: cell-based
# Method: as §4, §5, §6
# [10] = system: Candida lusitaniae; experiment: Radial diffusion assay, Candida species (Table 2); assay type: cell-based
# Method: as §4, §5, §6
# [11] = system: Candida glabrata; experiment: Radial diffusion assay, Candida species (Table 2); assay type: cell-based
# Method: as §4, §5, §6
# [12] = system: Candida tropicalis; experiment: Radial diffusion assay, Candida species (Table 2); assay type: cell-based
# Method: as §4, §5, §6
# [13] = system: Candida albicans; experiment: Radial diffusion assay, Candida species (Table 2); assay type: cell-based; details: higher effective concentration of agarose than Table 1
# [14] = system: Candida albicans SLU-1 strain; experiment: Serum stability, anti-fungal activity after serum incubation by radial diffusion bioassay; assay type: in vitro ADME, rat or human serum
# How it was run: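 Anti-fungal activity against C. albicans SLU-1 was measured by radial diffusion on peptides recovered from serum. Recovery: 1 mg/mL peptide in equal volume of rat or human serum at 37° C, sampled at 0–4 h, C-18 extraction, HPLC, sequencing and ESI/MS.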
# [15] = system: C. albicans (CA-1, Strain SLU-1); experiment: Radial diffusion assay; assay type: cell-based, Candida albicans; details: pmoles of peptide added to well to achieve a 30 mm^2 zone, PROBIT analysis, crude or purified (P′) peptide
# How it was run: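 Peptides, serially diluted 2-fold in D-PBS (top ~1 mg/mL), diffused 3 h at 37° C into pH 7.4 phosphate-buffered agarose seeded with 1×10^6 CFU/mL yeast, before overnight growth under a 6% Sabouraud overlayer. Net inhibition zones measured after Coomassie staining; PROBIT fit of log pmol vs area gave pmol for 30 mm^2.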
compound,measurement,setting,value
"CC(=O)N1CCN(c2ccc(OCC3COC(Cn4ccnc4)(c4ccc(Cl)cc4Cl)O3)cc2)CC1 (centres unmarked) [Ketoconazole, ketoconazole]",MFC,[1],> 10 µg/mL
same,MFC,"[2]; ATCC10231, strain ATCC 10231, read-out: Minimum Fungicidal Concentration, Candida albicans ATCC 10231",> 10 µg/mL
same,MFC,"[2]; ATCC18840, strain ATCC 18840, read-out: Minimum Fungicidal Concentration, Candida albicans ATCC 18840",> 10 µg/mL
same,MFC,"[2]; ATCC26555, strain ATCC 26555, read-out: Minimum Fungicidal Concentration, Candida albicans ATCC 26555",> 10 µg/mL
same,MFC,"[2]; ATCC44808, strain ATCC 44808, read-out: Minimum Fungicidal Concentration, Candida albicans ATCC 44808",> 10 µg/mL
same,MFC,"[2]; ATCC90028, strain ATCC 90028, read-out: Minimum Fungicidal Concentration, Candida albicans ATCC 90028",> 10 µg/mL
same,MFC,[3],> 10 µg/mL
same,MFC,[4],> 10 µg/mL
same,MFC,[5],5 µg/mL
"C[C@@H]1[C@H](O)[C@@H](C)/C=C/C=C/CC/C=C/C=C/C=C/C=C/C(O[C@H]2O[C@H](C)[C@@H](O)[C@H](N)[C@@H]2O)CC2O[C@](O)(CC(O)C(O)CCC(O)CC(O)CC(O)CC(=O)O[C@H]1C)CC(O)C2C(=O)O (some centres unmarked) [nystatin, reference compound]",pmol for a 30 mm^2 zone of inhibition against SLU-1,[6],98 pmol
same,pmol for a 30 mm^2 zone of inhibition against SLU-2G,[7],"> 1,215 pmol"
H-HHWLIQLHH-NH2 [XMP.337],"Anti-fungal activity: pmol/30 mm^2 zone, Candida parapsilosis",[8],b (No detectable activity up to 5 μg/well)
same,"Anti-fungal activity: pmol/30 mm^2 zone, Candida krusei",[9],"5,339 pmol/30 mm^2 zone"
same,"Anti-fungal activity: pmol/30 mm^2 zone, Candida lusitaniae",[10],"6,928 pmol/30 mm^2 zone"
same,"Anti-fungal activity: pmol/30 mm^2 zone, Candida glabrata",[11],b (No detectable activity up to 5 μg/well)
same,"Anti-fungal activity: pmol/30 mm^2 zone, Candida tropicalis",[12],b (No detectable activity up to 5 μg/well)
same,"Anti-fungal activity: pmol/30 mm^2 zone, Candida albicans",[13],b (No detectable activity up to 5 μg/well)
same,Activity in Serum t ½ (hr.),[14],inactive
same,C. albicans pmol/30 mm^2 zone,[15],b (No detectable activity up to 5 μg/well)
same,C. albicans pmol/30 mm^2 zone,[15]; listed as XMP.337P′,">3,350 pmol/30 mm^2 zone"
